Laboratory results published in US8592383B2, “Cycloalkyl-fused tetrahydroquinolines as CRTH2 receptor modulators” (Merck Sharp & Dohme Corp., priority 2011, dated 2013).

Each molecule was assayed against T1, hCRTH2 (Homo sapiens, UniProt Q9Y5Y4). Conditions: Radioligand Binding Assay B; Table B, rated A-D.
T1 sequence (Q9Y5Y4 1-395): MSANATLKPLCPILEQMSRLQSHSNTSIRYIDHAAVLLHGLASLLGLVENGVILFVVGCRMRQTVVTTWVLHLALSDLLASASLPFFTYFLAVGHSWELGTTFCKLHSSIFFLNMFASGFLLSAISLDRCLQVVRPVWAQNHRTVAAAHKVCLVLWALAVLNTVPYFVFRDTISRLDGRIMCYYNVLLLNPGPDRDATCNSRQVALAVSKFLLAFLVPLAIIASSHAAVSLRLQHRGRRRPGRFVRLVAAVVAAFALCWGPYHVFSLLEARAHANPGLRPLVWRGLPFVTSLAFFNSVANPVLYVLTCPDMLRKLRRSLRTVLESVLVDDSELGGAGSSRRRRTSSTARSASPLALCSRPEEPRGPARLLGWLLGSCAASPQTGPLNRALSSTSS
Design: expressed in transfected cells; host or cells: HEK (human embryonic kidney) cells expressing hCRTH2
Method: The filters were then washed with 4 mL of the same buffer and residual radioligand bound to the filter was determined by liquid scintillation counting following equilibration in 25 μl Ultima Gold F™ (Unifilter) (Packard).
CN(C(=O)N1c2ccccc2C(N(C(=O)CCC(=O)O)C2CC2)C2CCCC21)c1ccccc1 (racemic) [23D, 4-(cyclopropyl{cis, cis-4-[methyl(phenyl)carbamoyl]-2,3,3a,4,9,9a-hexahydro-1H-cyclopenta[b]quinolin-9-yl}amino)-4-oxobutanoic acid] was tested, and the Ki was 20.1 to 200 nM.
For O=C(O)CCC(=O)N(C1CC1)C1c2ccccc2N(C(=O)n2ccnc2)C2CCCC21 (racemic) [23B, 4-{cyclopropyl[cis, cis-4-(1H-imidazol-1-ylcarbonyl)-2,3,3a,4,9,9a-hexahydro-1H-cyclopenta[b]quinolin-9-yl]amino}-4-oxobutanoic acid], the Ki was 20.1 to 200 nM.
Molecule COc1ccc(COC(=O)N2c3ccccc3C(N(C(=O)CCC(=O)O)C3CC3)C3CCCC32)cc1 (racemic) [21E, 4-{cyclopropyl[cis, cis-4-{[(4-methoxybenzyl)oxy]carbonyl}-2,3,3a,4,9,9a-hexahydro-1H-cyclopenta[b]quinolin-9-yl]amino}-4-oxobutanoic acid] has a Ki of 20.1 to 200 nM.
O=C(O)CCC(=O)N(C1CC1)C1c2ccccc2N(C(=O)C2CC2)C2CCCC21 (racemic) [14G, 4-{cyclopropyl[cis,cis-4-(cyclopropylcarbonyl)-2,3,3a,4,9,9a-hexahydro-1H-cyclopenta[b]quinolin-9-yl]amino}-4-oxobutanoic acid] gave a Ki of 20.1 to 200 nM.
Work on O=C(O)CCC(=O)N(C1CC1)C1c2ccccc2N(c2nnc(-c3ccc(OC(F)(F)F)cc3)o2)C2CCCC21 (racemic) [36C, racemic 4-{cyclopropyl[cis, cis-4-{5-[4-trifluoro-(methoxy)phenyl]-1,3,4-oxadiazol-2-yl}-2,3,3a,4,9,9a-hexahydro-1H-cyclopenta[b]quinolin-9-yl]amino}-4-oxobutanoic acid] yielded a Ki of 201 to 7500 nM.
Molecule O=C(O)CCC(=O)N(c1ccccc1)C1c2ccccc2N(C(=O)c2cccnc2)C2CCCC21 (racemic) [12D, 4-oxo-4-{phenyl[cis,cis-4-(pyridin-3-ylcarbonyl)-2,3,3a,4,9,9a-hexahydro-1H-cyclopenta[b]quinolin-9-yl]amino}butanoic acid] has a Ki of 5.1 to 20 nM.
Molecule O=C(O)CCC(=O)N(C1CC1)[C@@H]1c2ccccc2N(S(=O)(=O)c2ccccc2)[C@@H]2CCC[C@H]12 (racemic) [compound 24, 4-[Cyclopropyl[cis,cis-2,3,3a,4,9,9a-hexahydro-4-(phenylsulfonyl)-1H-cyclopenta[b]quinolin-9-yl]amino]-4-oxobutanoic acid] has a Ki of 20.1 to 200 nM.
With O=C(O)CCC(=O)N(C1CC1)C1c2ccccc2N(C(=O)c2ccc(OC(F)(F)F)cc2)C2CCCC21 (racemic) [14C, 4-{cyclopropyl[cis,cis-4-{[4-(trifluoromethoxy)phenyl]carbon-yl}-2,3,3a,4,9,9a-hexahydro-1H-cyclopenta[b]quinolin-9-yl]amino}-4-oxobutanoic acid] the Ki was 5.1 to 20 nM.
O=C(O)CCC(=O)N(C1CC1)C1c2ccccc2N(C(=O)OCc2ccccc2F)C2CCCC21 (racemic) [21D, 4-{cyclopropyl[cis, cis-4-{[(2-fluorobenzyl)oxy]carbonyl}-2,3,3a,4,9,9a-hexahydro-1H-cyclopenta[b]quinolin-9-yl]amino}-4-oxobutanoic acid] gave a Ki of 20.1 to 200 nM.
Molecule O=C(O)CCC(=O)N(C1CC1)C1c2ccccc2N(C(=O)OCC2CC2)C2CCCC21 (racemic) [21i, 4-(cyclopropyl{cis, cis-4-[(cyclopropylmethoxy)carbonyl]-2,3,3a,4,9,9a-hexahydro-1H-cyclopenta[b]quinolin-9-yl}amino)-4-oxobutanoic acid] has a Ki of 20.1 to 200 nM.
In the case of COC(=O)CCC(=O)N(C1CC1)C1c2ccc(F)cc2N(C(=O)c2ccc(Oc3ccccc3)cc2)C2CCCC21 (racemic) [16B, Methyl 4-{cyclopropyl[cis,cis-6-fluoro-4-[(4-phenoxyphenyl)carbonyl]-2,3,3a,4,9,9a-hexahydro-1H-cyclopenta[b]quinolin-9-yl}amino)-4-oxobutanoate], the Ki is reported as 5.1 to 20 nM.
CCN(C(=O)CCC(=O)O)C1c2ccccc2N(C(=O)c2ccc(OC(F)(F)F)cc2)C2CCCC12 (racemic) [13C, 4-{ethyl [cis,cis-4-{[4-(trifluoromethoxy)phenyl]carbonyl}-2,3,3a,4,9,9a-hexahydro-1H-cyclopenta[b]quinolin-9-yl]amino}-4-oxobutanoic acid] gave a Ki of 5.1 to 20 nM.
Molecule O=C(O)/C=C/C(=O)N(CC1CC1)C1c2ccccc2N(C(=O)c2ccccc2)C2CCCC12 (racemic) [17H, (2E)-4-[[cis,cis-4-benzoyl-2,3,3a,4,9,9a-hexahydro-1H-cyclopenta[b]quinolin-9-yl](cyclopropylmethyl)amino]-4-oxo-2-butenoic acid] has a Ki of 201 to 7500 nM.
In the case of COC(=O)CCC(=O)N(c1ccccc1)[C@@H]1c2ccccc2N(C(=O)OCc2ccccc2)[C@@H]2CCC[C@@H]21 (racemic) [compound 12, Benzyl cis,cis-9-[(4-methoxy-4-oxobutanoyl)(phenyl)amino]-1,2,3,3a,9,9a-hexahydro-4H-cyclopenta[b]quinoline-4-carboxylate], the Ki is reported as 201 to 7500 nM.
With O=C(O)COC(=O)N(C1CC1)C1c2ccccc2N(c2nnc(-c3ccccc3)o2)C2CCCC21 (racemic) [compound 37, ({Cyclopropyl[cis,cis-4-(5-phenyl-1,3,4-oxadiazol-2-yl)-2,3,3a,4,9,9a-hexahydro-1H-cyclopenta[b]quinolin-9-yl]carbamoyl}oxy)acetic acid] the Ki was 5.1 to 20 nM.
For O=C(O)COC(=O)N(C1CC1)[C@@H]1c2ccccc2N(C(=O)c2ccc(OC(F)(F)F)cc2)[C@@H]2CCC[C@@H]21 (racemic) [compound 31, ({Cyclopropyl[cis,cis-4-{[4-(trifluoromethoxy)phenyl]carbonyl}-2,3,3a,4,9,9a-hexahydro-1H-cyclopenta[b]quinolin-9-yl]carbamoyl}oxy)acetic acid], the Ki was 5.1 to 20 nM.
Work on CN(C(=O)/C=C/C(=O)O)C1c2ccccc2N(C(=O)c2ccc(OC(F)(F)F)cc2)C2CCCC12 (racemic) [17Q, (2E)-4-[[cis,cis-2,3,3a,4,9,9a-hexahydro-4-[4-(trifluoromethoxy)benzoyl]-1H-cyclopenta[b]quinolin-9-yl]methylamino]-4-oxo-2-butenoic acid] yielded a Ki of 201 to 7500 nM.
Work on O=C(O)CCC(=O)N(c1ccccc1)C1c2ccccc2N(C(=O)OCc2ccccc2)C2CCCC21 (racemic) [12C, 4-[{cis,cis-4-[(benzyloxy)carbonyl]-2,3,3a,4,9,9a-hexahydro-1H-cyclopenta[b]quinolin-9-yl}(phenyl)amino]-4-oxobutanoic acid] yielded a Ki of 5.1 to 20 nM.
Molecule O=C(O)CCC(=O)N(C1CC1)[C@@H]1c2ccccc2N(C(=O)OCc2ccccc2)[C@@H]2CCCC[C@@H]21 (racemic) [compound 28, 4-[{cis,cis-10-[(Benzyloxy)carbonyl]-1,2,3,4,4a,9,9a,10-octahydroacridin-9-yl}(cyclopropyl)amino]-4-oxobutanoic acid] has a Ki of 20.1 to 200 nM.
CN(C(=O)CCCC(=O)O)C1c2ccccc2N(C(=O)c2ccc(OC(F)(F)F)cc2)C2CCCC12 (racemic) [17o, 5-[[cis,cis-2,3,3a,4,9,9a-hexahydro-4-[4-(trifluoromethoxy)benzoyl]-1H-cyclopenta[b]quinolin-9-yl]methylamino]-5-oxopentanoic acid] showed a Ki of 201 to 7500 nM.
In the case of O=C(O)CCC(=O)N(C1CC1)[C@@H]1c2ccccc2N(C(=O)N2CCc3ccccc32)[C@@H]2CCC[C@@H]21 (racemic) [compound 23, 4-{Cyclopropyl[cis,cis-4-(2,3-dihydro-1H-indol-1-ylcarbonyl)-2,3,3a,4,9,9a-hexahydro-1H-cyclopenta[b]quinolin-9-yl]amino}-4-oxobutanoic acid], the Ki is reported as 20.1 to 200 nM.
